Experimental data from patent publication US20100029615A1, “BENZIMIDAZOLE DERIVATIVES” (priority 2006, published 2010).
Counter-ions that a name gives are not always drawn.

target: T1, SMO (Mus musculus, UniProt P56726); test: Smoothened (SMO)/Sonic Hedgehog (SHh) Transient Transcriptional Activation Assay (Gli-luciferase reporter in C3H10T1/2 cells); type: cell-based, murine; conditions: 2 uM test compound, SHh 250 ng/ml, 20 hrs
T1 construct: endogenous in cells; host or cells: C3H10T1/2 (ATCC #CCL-226)
T1 sequence (P56726 33-793): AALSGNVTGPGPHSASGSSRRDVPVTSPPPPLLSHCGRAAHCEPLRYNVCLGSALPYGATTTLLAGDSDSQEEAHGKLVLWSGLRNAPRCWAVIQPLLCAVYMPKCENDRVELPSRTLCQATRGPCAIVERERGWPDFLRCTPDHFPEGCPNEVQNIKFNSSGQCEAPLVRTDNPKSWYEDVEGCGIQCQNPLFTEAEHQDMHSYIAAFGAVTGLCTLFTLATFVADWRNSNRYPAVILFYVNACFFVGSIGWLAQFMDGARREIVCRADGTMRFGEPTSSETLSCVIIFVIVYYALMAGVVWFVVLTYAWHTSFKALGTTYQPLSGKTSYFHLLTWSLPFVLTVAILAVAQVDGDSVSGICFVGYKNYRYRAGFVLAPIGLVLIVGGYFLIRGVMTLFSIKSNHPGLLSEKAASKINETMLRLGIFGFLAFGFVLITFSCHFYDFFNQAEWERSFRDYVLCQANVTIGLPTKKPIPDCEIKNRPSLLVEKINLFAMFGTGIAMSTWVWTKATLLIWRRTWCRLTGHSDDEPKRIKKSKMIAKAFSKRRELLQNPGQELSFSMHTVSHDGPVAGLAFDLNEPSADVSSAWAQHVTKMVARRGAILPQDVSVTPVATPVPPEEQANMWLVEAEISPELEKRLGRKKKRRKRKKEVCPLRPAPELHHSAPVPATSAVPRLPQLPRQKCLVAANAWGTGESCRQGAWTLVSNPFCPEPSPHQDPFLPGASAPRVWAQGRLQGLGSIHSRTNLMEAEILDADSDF
Experimental: As noted above, the compounds of the invention are useful as inhibitors of SMO. Methods for determining the in vitro activity of these compounds are described below: Smoothened (SMO)/Sonic Hedgehog (SHh) Transient Transcriptional Activation Assay
On Day 1,2×10^6 C3H10T1/2 cells (ATCC #CCL-226) were split and seeded in 12 mls of growth medium Basal Medium Eagle (BME, Invitrogen #21010-046) supplemented with 2 mM L-glutamine (Invitrogen #25030-081), 0.1 units/ml penicillin and 0.1 ug/ml streptomycin (Invitrogen #15140-122), and 10% Fetal Bovine Serum (FBS, Invitrogen #16140-071) in a T-75 flask (Costar #3376). They were allowed to attach for 4 hours at 37° C., 5% CO2. The cells were then transfected using Fugene 6 (Roch #11 814 443 001) in the following reaction: 48 ul Fugene 6 and 745 ul Opti-MEM (Invitrogen #31985-070) were mixed and allowed to sit at room temperature for 5 minutes. 8 ug of pGL4.14/mGli(CS) DNA (10× murine Gli response elements and minimal CS promoter) and 0.5 ug of pEGFP DNA (Clontech) were added, gently mixed and incubated at room temperature for 20 minutes. This entire transfection mix was then added to the T-75 flask containing the cells. The cells were incubated at 37 °C, 5% C02 for 18-24 hrs.
On Day 2, the transfected cells were trypsinized and seeded into white 96 well plates (Costar #3917) in 100ul/well of growth medium at a concentration of 20,000 cells/well. The cells were allowed to recover for 4 hrs before adding serum starvation medium Dulbecco's Modified Eagle Medium (DMEM, Invitrogen #21063-029) supplemented with 2 mM L-glutamine, 0.1 units/ml penicillin and 0.1 ug/ml streptomycin, and 0.5% Calf Serum (CS, Invitrogen #26170-043). The growth media was aspirated off, and the cells were rinsed with 100 ul of starvation media. 95 ul of starvation media was then added to each well. The cells were incubated for 20 hrs at 37 °C, 5% C02.
On Day 3, cells were dosed with test compounds at a final concentration ranging from 2 uM to 2 nM. Immediately after dosing cells with compounds, recombinant human sonic hedgehog (SHh, R&D Systems #1845-SH) was add to a final concentration of 250 ng/ml. A 25 ug vial of SHh was reconstituted with 250 ul PBS/0.1% BSA to give a 100 ng/ul working stock. This working stock was then diluted 1:20 in starvation media. The transfected cells were incubated with compounds and SHh for 20 hrs at 37 °C, 5% C02.
Luciferase assays were conducted on Day 4 using Dual-Glo Luciferase assay system (Promega #E2940) according to Promega's protocol. Briefly, Dual-Glo luciferase reagent was made up and 100 uls were added to each well of the 96 well plate containing media. Plates were shaken at room temperature for 10 minutes, and then read on TopCount (Perkin-Elmer). The luminescence was recorded.

**Q.** “N-(3-(5-Cyano-1-methyl-1H-benzo[d]imidazol-2-yl)cyclohexyl]-2,3-dihydrobenzo[b][1,4]dioxine-6-carboxamide and N-(3-(6-Cyano-1-methyl-1H-benzo[d]imidazol-2-yl)cyclohexyl]-2,3-dihydrobenzo[b][1,4]dioxine-6-carboxamide [Example 20]” was tested. Which “SMO % inhibition at 2 uM” value did it give?
**A.** 103%

**Q.** For “N-(3-(6-(Methoxymethyl)-1-methyl-1H-benzo[d]imidazol-2-yl]cyclohexyl)-2,3-dihydrobenzo[b][1,4]dioxine-6-carboxamide and N-(3-(6-(Methoxymethyl)-1-methyl-1H-benzo[d]imidazol-2-yl]cyclohexyl)-2,3-dihydrobenzo[b][1,4]dioxine-6-carboxamide [Example 33]”, which “SMO % inhibition at 2 uM” value is on record?
**A.** 102%

same assay, conditions: C3H 10T1/2, 2 uM test compound, SHh 250 ng/ml, 20 hrs, read-out: SMO % inhibition at 2 uM

**Q.** With `CN(C)c1ccc2nc(C3CCCC(NC(=O)c4ccc5c(c4)OCCO5)C3)[nH]c2c1` (stereo not drawn) [Example 39] as the molecule, how does the inhibition at 2 µM read?
**A.** 102%

**Q.** How did the inhibition at 2 µM turn out when `Cn1c([C@@H]2CCC[C@H](NC(=O)c3ccc4c(c3)OCCO4)C2)nc2ccccc21` [Example 21, N-((1S,3R)-3-(1-Methyl-1H-benzo[d]imidazol-2-yl)cyclohexyl)-2,3-dihydrobenzo[b](1,4]dioxine-6-carboxamide] was run?
**A.** 71%

**Q.** `CCn1c(C2CCCC(NC(=O)c3ccc4c(c3)OCCO4)C2)nc2ccccc21` (stereo not drawn) [Example 6, N-(3-(1-Ethyl-1H-benzo[d]imidazol-2-yl)cyclohexyl)-2,3-dihydrobenzo[b][1,4]dioxine-6-carboxamide] was tested. Which inhibition at 2 µM did it give?
**A.** 58%

**Q.** Which inhibition at 2 µM does the source give for `COc1cc(OC)cc(C(=O)NC2CCCC(c3nc4cc(NC(C)=O)ccc4[nH]3)C2)c1` (stereo not drawn) [Example 9, N-(3-(5-Acetamido-1H-benzo[d]imidazol-2-yl)cyclohexyl)-3,5-dimethoxybenzamide] here?
**A.** 87%

same assay, conditions: C3H 10T1/2, 2 μM test compound, SHh 250 ng/ml, 20 hrs, read-out: SMO CELL % INHIBITION @ 2 μM

**Q.** Which inhibition at 2 µM does the source give for `O=C(N[C@@H]1CCC[C@H](c2nc3ccccc3[nH]2)C1)C1=Cc2ccccc2OC1` [Example 193, N-[(1R,3S)-3-(1H-benzimidazol-2-yl)cyclohexyl]-2H-chromene-3-carboxamide triflouroacetate] here?
**A.** 53%

**Q.** How did the inhibition at 2 µM turn out when `COc1cc(C(=O)NC2CCCC(c3nc4ccccc4[nH]3)C2)nc(OC)n1` (stereo not drawn) [Example 119, N-[3-(1H-benzimidazol-2-yl)cyclohexyl]-2,6-dimethoxypyr-imidine-4-carboxamide triflouroacetate] was run?
**A.** 75%

**Q.** How did the inhibition at 2 µM turn out when `O=C(Nc1ccc(F)c(C(F)(F)F)c1)NC12CCCC(c3nc4ccccc4[nH]3)(C1)C2` [Example 255, 1-(5-(1H-benzo[d]imidaz-ol-2-yl)bicyclo[3.1.1]heptan-1-yl)-3-(4-fluoro-3-(trifluoromethyl)phenyl)urea HCL] was run?
**A.** 101%

**Q.** For `O=C(NC12CCCC(c3nc4cc(C(F)(F)F)ccc4[nH]3)(C1)C2)c1ccc2c(c1)OCCO2` [Example 257, N-{5-[5-(trifluoromethyl)-1H-benzimidazol-2-yl]bicyclo[3.1.1]hept-1-yl}-2,3-dihydro-1,4-benzodioxine-6-carboxamide], which inhibition at 2 µM is on record?
**A.** 107%

**Q.** Which inhibition at 2 µM does the source give for `O=C(NC1CCCC(c2nc3ccccc3[nH]2)C1)c1ccc2cc[nH]c2c1` (stereo not drawn) [Example 140, N-[3-(1H-benzimidazol-2-yl)cyclohexyl]-1H-indole-6-carboxamide HCl] here?
**A.** 110%

**Q.** `O=C(NC1CCCC(c2nc3ccccc3[nH]2)C1)c1n[nH]c2ccccc12` (stereo not drawn) [Example 101, N-[3-(1H-benzimidazol-2-yl)cyclohexyl]-1H-indazole-3-carboxamide triflouroacetate] was tested. Which inhibition at 2 µM did it give?
**A.** 56%

**Q.** For `O=C(N[C@@H]1CCC[C@H](c2nc3ccccc3[nH]2)C1)c1nc2ccccc2[nH]1` [Example 176, N-[(1R,3S)-3-(1H-benzimidazol-2-yl)cyclohexyl]-1H-benzimidazole-2-carboxamide HCl], which inhibition at 2 µM is on record?
**A.** 57%

**Q.** With `O=C(N[C@@H]1CCC[C@H](c2nc3ccccc3[nH]2)C1)c1ccc2c(c1)CCNC2` [Example 309, N-[(1R,3S)-3-(1H-benzimidazol-2-yl)cyclohexyl]-1,2,3,4-tetrahydroiso-quinoline-6-carboxamide HCl] as the molecule, how does the inhibition at 2 µM read?
**A.** 102%

**Q.** `S=C(N[C@@H]1CCC[C@H](c2nc3ccccc3[nH]2)C1)c1ccc2c(c1)OCCO2` [Example 75, N-((1R,3S)-3-(1H-benzo[d]imidazol-2-yl)cyclohexyl)-2,3-dihydrobenzo[b] [1,4]dioxine-6-carbothioamide HCl] was tested. Which inhibition at 2 µM did it give?
**A.** 104%

**Q.** `O=C(N[C@@H]1CCC[C@H](c2nc3ccccc3[nH]2)C1)C1COc2ccccc2O1` (stereo partly drawn) [Example 196, N-[(1R,3S)-3-(1H-benzimidazol-2-yl)cyclohexyl]-2,3-dihydro-1,4-benzodioxine-2-carboxamide triflouroacetate] was tested. Which inhibition at 2 µM did it give?
**A.** 70%

**Q.** For `O=C(N[C@@H]1CCC[C@H](c2nc3ccccc3[nH]2)C1)c1n[nH]c2c1CCCCCC2` [Example 212, N-[(1R,3S)-3-(1H-benzimidazol-2-yl)cyclohexyl]-4,5,6,7,8,9-hexahydro-1H-cycloocta[c] pyrazole-3-carboxamide triflouroacetate], which inhibition at 2 µM is on record?
**A.** 71%

**Q.** `O=C(NC1CCCC(c2nc3ccccc3[nH]2)C1)C1CCCO1` (stereo not drawn) [Example 121, N-[3-(1H-benzimidazol-2-yl)cyclohexyl] tetrahydrofuran-2-carboxamide triflouroacetate] was tested. Which inhibition at 2 µM did it give?
**A.** 94%

**Q.** Which inhibition at 2 µM does the source give for `CN1C(=O)COc2ccc(C(=O)N[C@@H]3CCC[C@H](c4nc5ccccc5n4C)C3)cc21` [Example 297, 4-methyl-N-[(1R,3S)-3-(1-methyl-1H-benzimidazol-2-yl)cyclohexyl]-3-oxo-3,4-dihydro-2H-1,4-benzoxazine-6-carboxamide (+)-tartrate] here?
**A.** 106%

**Q.** For `O=C(N[C@@H]1CCC[C@H](c2nc3ccccc3[nH]2)C1)c1ccc2c(c1)OCO2` [Example 186, N-[(1R,3S)-3-(1H-benzimidazol-2-yl)cyclohexyl]-1,3-benzodioxole-5-carboxamide triflouroacetate], which inhibition at 2 µM is on record?
**A.** 59%

**Q.** For `COCCNc1ccc(C(=O)N[C@@H]2CCC[C@H](c3nc4cc(C(F)(F)F)ccc4[nH]3)C2)cn1` [Example 292, 6-[(2-methoxyethyl)amino]-N-{(1R,3S)-3-[5-(trifluoromethyl)-1H-benzimidazol-2-yl]cyclohexyl} nicotinamide HCl], which inhibition at 2 µM is on record?
**A.** 104%

**Q.** How did the inhibition at 2 µM turn out when `O=C(CCc1nc2ccccc2[nH]1)NC1CCCC(c2nc3ccccc3[nH]2)C1` (stereo not drawn) [Example 148, 3-(1H-benzimidazol-2-yl)-N-[3-(1H-benzimidazol-2-yl)cyclohexyl]-propanamide triflouroacetate] was run?
**A.** 50%

**Q.** Which inhibition at 2 µM does the source give for `O=C(NC12CCCC(c3nc4cc(C(F)(F)F)ccc4[nH]3)(C1)C2)c1ccc(C(=O)C(F)(F)F)cc1` [Example 274, 4-(trifluoroacetyl)-N-{5-[5-(trifluoromethyl)-1H-benzimidazol-2-yl]bicyclo[3.1.1]hept-1-yl}benzamide] here?
**A.** 105%

**Q.** `O=C1Cc2cc(C(=O)N[C@@H]3CCC[C@H](c4nc5ccccc5[nH]4)C3)ccc2N1` [Example 219, N-[(1R,3S)-3-(1H-benzimidazol-2-yl)cyclohexyl]-2-oxoindoline-5-carboxamide triflouroacetate] was tested. Which inhibition at 2 µM did it give?
**A.** 87%

**Q.** How did the inhibition at 2 µM turn out when `O=C(CN1C(=O)COc2cccnc21)NC1CCCC(c2nc3ccccc3[nH]2)C1` (stereo not drawn) [Example 105, N-[3-(1H-benzimidazol-2-yl)cyclohexyl]-2-(3-oxo-2,3-dihydro-4H-pyrido[3,2-b][1,4]oxazin-4-yl)acetamide triflouroacetate] was run?
**A.** 103%

**Q.** How did the inhibition at 2 µM turn out when `Cc1cc2c(cc1C(=O)NC13CCCC(c4nc5cc(C(F)(F)F)ccc5[nH]4)(C1)C3)OCCO2` [Example 306, 7-methyl-N-{5-[5-(trifluoromethyl)-1H-benzimidazol-2-yl]bicyclo[3.1.1]hept-1-yl}-2,3-dihydro-1,4-benzodioxine-6-carboxamide] was run?
**A.** 110%

**Q.** For `O=C(NC12CCCC(c3nc4cc(Cl)ccc4[nH]3)(C1)C2)c1cc2c(cn1)OCCO2` [Example 271, N-[5-(5-chloro-1H-benzimidazol-2-yl)bicyclo[3.1.1]hept-1-yl]-2,3-dihydro[1,4]di-oxino[2,3-c]pyridine-7-carboxamide], which inhibition at 2 µM is on record?
**A.** 84.7%
